Measured values from patent publication US20220048893A1, “Compounds for Treating Neurodegenerative Diseases and Cancers” (Hongyi & Associates LLC, priority 2019, published 2022).

Test: In vivo PK study, oral, plasma and brain
Design: species or system Sprague Dawley rats; AUC(0-t) / AUC(0-inf): concentration or dose not given beside the values
Conditions: for brain permeability compared to Nilotinib and Imatinib: in vivo PK studies; for Kp / AUC(0-inf) / AUC(0-t) / Cmax / Tmax / half-life: rat, oral, Sprague Dawley rats; for Kp: brain and plasma, read-out: AUC(0-t) Brain/ AUC(0-t) plasma
Experimental: In the PK profiling study, Compounds 1 and 2 were administered orally to three Sprague Dawley rats. The animals were fasted overnight before drug administration. The food supply were resumed 4 hrs post dose. Blood samples were collected at 8 time points after dose: 0.25 h, 0.5 h, 1 h, 2 h, 4 h, 6 h, 8 h and 24 h. There are three samples for each time point. Brain tissues were collected after 24 hour blood sample collection. Drug concentrations in blood and brain were analyzed by LC-MS/MS. The analytical results were confirmed using quality control samples for intra-assay variation. The accuracy of >66.7% of the quality control samples should be between 80-120% of the known values. Standard set of parameters including area under the curve (AUC(0-t) and AUC(0-∞)), elimination half-life (T1/2), maximum plasma concentration (Cmax), time to reach maximum plasma concentration (Tmax) were calculated using noncompartmental analysis modules in FDA certified pharmacokinetic program Phoenix WinNonlin 7.0 (Pharsight, USA). The ratio of brain to plasma concentration were calculated by the concentration in brain tissue versus the concentration in plasma.

brain permeability compared to Nilotinib and Imatinib	Kp	AUC(0-inf) (Brain) [ng·h/mL]	AUC(0-t) (Brain) [ng·h/mL]	Cmax (Brain) [ng/mL]	Tmax (Brain) [h]	half-life (Brain) [h]	AUC(0-inf) (Plasma) [ng·h/mL]	AUC(0-t) (Plasma) [ng·h/mL]	Cmax (Plasma) [ng/mL]	Tmax (Plasma) [h]	half-life (Plasma) [h]	Structure (SMILES)
much improved brain permeability	0.121	8740	7720	557	6	7.1	65400	64000	6680	4	3.98	Cc1ccc(C(=O)Nc2ccc(CC(C)N(C)C)cc2)cc1Nc1ccnc(-c2cccnc2)n1 (stereo not drawn) [Compound 1, N-(4-(2-(dimethylamino)propyl)phenyl)-4-methyl-3-((2-(pyridin-3-yl)pyrimidin-4-yl)amino)benzamide]
much improved brain permeability	0.142	25600	13100	796	6	20.2	219000	92000	5380	6	26.8	Cc1ccc(C(=O)Nc2ccc(C3CCN(C)CC3)cc2)cc1Nc1ccnc(-c2cccnc2)n1 [Compound 2, 4-methyl-N-(4-(1-methylpiperidin-4-yl)phenyl)-3-((2-(pyridin-3-yl)pyrimidin-4-yl)amino)benzamide]
